This passage reports IC50 results from patent publication US20020022633A1, “Inhibitors of prenyl-protein transferase” (priority 2000, published 2002).

The target in this assay is T1, human FPTase (Homo sapiens, UniProt P49354+P49356).
T1 construct: made in house
As to the kind of experiment: In vitro inhibition of ras farnesyl transferase (FPTase transferase assay). The class given is biochemical. The following applies: recombinant FPTase; 650 nM Ras-CVLS, 100 nM farnesyl diphosphate; 30° C.; read-out: IC50, inhibitory activity against human FPTase. How it is done:
In vitro Inhibition of ras Farnesyl Transferase
Transferase Assays. Isoprenyl-protein transferase activity assays are carried out at 30° C. unless noted otherwise. A typical reaction contains (in a final volume of 50 µL): [^3H]farnesyl diphosphate, Ras protein , 50 mM HEPES, pH 7.5, 5 mM MgCl2, 5 mM dithiothreitol, 10 μM ZnCl2, 0.1% polyethyleneglycol (PEG) (15,000-20,000 mw) and isoprenyl-protein transferase. The FPTase employed in the assay is prepared by recombinant expression as described in Omer, C. A., Kral, A. M., Diehl, R. E., Prendergast, G. C., Powers, S., Allen, C. M., Gibbs, J. B. and Kohl, N. E. (1993) Biochemistry 32:5167-5176. After thermally pre-equilibrating the assay mixture in the absence of enzyme, reactions are initiated by the addition of isoprenyl-protein transferase and stopped at timed intervals (typically 15 min) by the addition of 1 M HCl in ethanol (1 mL). The quenched reactions are allowed to stand for 15 m (to complete the precipitation process). After adding 2 mL of 100% ethanol, the reactions are vacuum-filtered through Whatman GFIC filters. Filters are washed four times with 2 mL aliquots of 100% ethanol, mixed with scintillation fluid (10 mL) and then counted in a Beckman LS3801 scintillation counter. […]

Counter-ions that a name gives are not always drawn. Bounds are passed on as bounds.

Turning to `N#Cc1ccc2cc1Oc1ccc3ccc(=O)n(c3c1)-c1ccc(cn1)CCc1cncn1C2` [Example 1, 17-Oxo-22,23-dihydro-5H-12,14:18,21-dietheno-6,10-metheno-benzo[d]imidazo [4,3-l][1,5,7,13]oxatriazacyclononadecine-9-carbonitrile dihydrochloride], the IC50 was at most 30 µM.
